These results are taken from patent publication US20200022963A1, “PHARMACEUTICAL COMPOSITION COMPRISING BETAHISTINE” (Otolanum AG, priority 2017, published 2020).

The conditions of data set [1]: cited from earlier work.
The conditions of data set [2]: both, beagle, dog, in vivo, 1 h.
Protocol: The safety and pharmacokinetic profile of intranasal betahistine was first evaluated in a single dose toxicology study in male and female beagle dogs (14-21 months of age, weight 8.2-11.8 kg). Both the vehicle and test article were delivered in a single dose via a nasal spray pump (Aptar Classic Line) with a delivery volume of 100 μL into both nostrils at total dose levels of 0 (vehicle), 4, 20 or 80 mg of betahistine dihydrochloride. Each treatment group was made up of 1 dog/sex.
Plasma concentrations were measured with liquid chromatographic tandem mass spectrometry (LC-MS/MS; SCIEX API 5000 for betahistine and SCIEX API 4000 for 2-pyridylacetic acid (2-PAA)) with a validated method. Betahistine-^13CD3 dihydrochloride and 2-PAA-D4 hydrochloride served as internal standards. The standard calibration range—using a plasma sample volume of 0.05 mL—for betahistine was 0.05 to 50 ng/mL and for 2-PAA it was 1 to 1000 ng/mL. The limit of quantitation was 0.05 ng/mL for betahistine and 1.0 ng/mL for 2-PAA.
In case of betahistine, the method involved a liquid-liquid extraction; in case of 2-PAA it involved protein precipitation. For betahistine, plasma samples were extracted under basic conditions with an organic solvent; the organic phase was dried and reconstituted in reconstitution solvent. Approximately 0.1 mL of the aqueous layer was transferred into polypropylene vials for LC-MS/MS analysis. For 2-PAA, plasma samples were precipitated with a mixture of organic solvents, supernatant was diluted and 0.12 mL was transferred into polypropylene vials for LC-MS/MS analysis. Sample analysis was conducted using reversed phase chromatography.
Data set [3] can be described thus: Tolerability of intranasal betahistine in beagle dogs, Example 5. Format: in vivo. Conditions: dog. The procedure: In this study, the pharmacokinetic profile of betahistine was evaluated after a single dose administration of betahistine in male and female beagle dogs (age 5-7 months; weight of 5-11 kg, within a range of 3 kg for each sex) for three routes of administration: oral, intranasal, and intravenous.
On Day 8 of the study, the animals that received oral BH at a dose of 12 mg/kg were administered the test betahistine composition intranasally at a dose of 40 mg betahistine dihydrochloride; the animals that received oral BH at a dose of 24 mg/kg were administered the test betahistine composition intranasally at a dose of 80 mg betahistine dihydrochloride; and the animals that received oral BH at a dose of 48 mg/kg were administered the test betahistine composition intranasally at a dose of 120 mg betahistine dihydrochloride. The test betahistine composition was delivered intranasally in a single dose via an Aptar nasal spray pump device at a total dose level of 40, 80 and 120 mg of betahistine dihydrochloride. Plasma samples were collected prior to dosing, and then at 5, 10, 20 and 30 min, 1, 2, 3, 6, 24 hours after dosing.

The conditions of data set [4]: human, cited from earlier work.
A short description of data set [5]: Relative bioavailability of intranasal versus oral betahistine in humans, Example 6. The class given is in vivo. The following applies: human.

Turning to `CNCCc1ccccn1` [betahistine], the plasma half-life in data set [1] (betahistine, humans) was 3 to 4 h. The Cmax in data set [1] (human, oral betahistine 24 mg, Chen et al.) is < 0.5 ng/mL. Moreover, the absolute bioavailability entry in data set [1] (orally administered betahistine, estimated (SmPC)) is “around 1%”. Further, the “decline of plasma concentration” value in data set [2] is “more than 90%”. Besides, in data set [3] (highest concentration betahistine group), the salivation entry is listed as “salivation was noted in most animals”. Moreover, the sneezing in data set [3] (highest dose level) was 2/8. Moreover, in data set [4] (oral 48 mg (0.8 mg/kg), Barak et al. data), the AUC is 0.121 ng·h/mL. For the same molecule, the “AUC(0-5h)” value in data set [4] (oral 48 mg t.i.d., approximately 0.8 mg/kg, Day 8, Barak et al.) is 0.121 ng·h/mL. Also, the AUC/Dose in data set [5] (intranasal 5 mg (0.07 mg/kg)) is 3.01 (h · ng/mL)/(mg/kg); in data set [5] (intranasal 10 mg (0.15 mg/kg)), 3.67 (h · ng/mL)/(mg/kg); in data set [5] (intranasal 20 mg (0.29 mg/kg)) it was 5.60 (h · ng/mL)/(mg/kg); in data set [5] (intranasal 40 mg (0.57 mg/kg)) it was 6.21 (h · ng/mL)/(mg/kg).
